Experimental findings from PubChem BioAssay AID1645866 (Buhrlage Lab, Dana-Farber Cancer Institute and Novartis …, 2021) are described below.

Structures are written as SMILES. Calls of active or inactive are those of the source.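 How the source made its calls: active means in confirmatory dose-response testing, peak deubiquitinase inhibition of 30% or more; inactive means the rest.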 Where only a bound is given, the exact number is not on record here.

In the experiment the target is Ubiquitin carboxyl-terminal hydrolase 28 (Homo sapiens) (UniProt Q96RU2). In words: Concentration-response biochemical assay confirming initial hits as inhibitors of ubiquitin-specific protease 28 (AID 1645866). Conditions: purified USP28, ubiquitin-rhodamine fluorescence, 30 min.
Chain of Ubiquitin carboxyl-terminal hydrolase 28 (Homo sapiens) (Q96RU2 whole entry, looked up): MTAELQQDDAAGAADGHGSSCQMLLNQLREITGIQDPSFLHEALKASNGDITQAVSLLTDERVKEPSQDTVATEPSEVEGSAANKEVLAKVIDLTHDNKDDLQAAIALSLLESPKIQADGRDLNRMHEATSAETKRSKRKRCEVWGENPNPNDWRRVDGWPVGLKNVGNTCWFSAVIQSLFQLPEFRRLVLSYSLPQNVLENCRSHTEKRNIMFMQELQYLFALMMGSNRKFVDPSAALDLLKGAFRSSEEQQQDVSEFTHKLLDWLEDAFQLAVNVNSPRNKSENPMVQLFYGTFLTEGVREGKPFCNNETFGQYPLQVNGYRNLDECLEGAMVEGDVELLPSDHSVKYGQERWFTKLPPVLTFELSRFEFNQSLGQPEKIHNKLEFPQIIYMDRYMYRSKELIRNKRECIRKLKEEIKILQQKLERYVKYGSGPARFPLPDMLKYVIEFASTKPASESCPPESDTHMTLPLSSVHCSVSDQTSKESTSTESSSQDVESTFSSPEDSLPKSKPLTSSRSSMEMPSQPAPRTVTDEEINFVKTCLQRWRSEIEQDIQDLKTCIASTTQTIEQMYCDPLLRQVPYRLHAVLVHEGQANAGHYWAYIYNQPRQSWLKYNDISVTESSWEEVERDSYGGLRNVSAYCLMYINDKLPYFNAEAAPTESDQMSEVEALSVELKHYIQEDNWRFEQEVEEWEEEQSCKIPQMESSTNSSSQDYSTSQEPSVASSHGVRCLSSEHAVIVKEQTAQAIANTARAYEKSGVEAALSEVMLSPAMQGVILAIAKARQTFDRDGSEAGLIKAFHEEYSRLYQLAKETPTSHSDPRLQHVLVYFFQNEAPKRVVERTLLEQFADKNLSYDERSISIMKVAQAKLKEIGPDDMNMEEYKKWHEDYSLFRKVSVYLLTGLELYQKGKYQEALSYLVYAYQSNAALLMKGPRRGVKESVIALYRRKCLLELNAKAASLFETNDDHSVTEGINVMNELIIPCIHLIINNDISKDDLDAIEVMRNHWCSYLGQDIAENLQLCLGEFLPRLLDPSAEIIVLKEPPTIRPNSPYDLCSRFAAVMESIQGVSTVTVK

The term IC50 denotes the concentration that inhibits the measured activity by half. Take `COc1ccc(-c2cc3nc([C@H](C)NC(=O)Cc4cccc(F)c4)nn3cn2)cc1`: the IC50 is 13 µM.
As for `CCOc1ccc2nc(NC(=O)C3CCN(S(=O)(=O)c4ccc5c(c4)CC(C)N5C(C)=O)CC3)sc2c1` (stereo unspecified), the IC50 is > 50 µM (inactive).
Regarding `O=C(Nc1ccc(Cl)cc1)Nc1cccn2ncnc12`, the half-maximal inhibitory concentration (IC50) was 11.9 µM.
For the compound `O=C(CNS(=O)(=O)c1ccc(F)cc1)N1CCCC(c2nnc3ccccn23)C1` (stereo unspecified), the 50% inhibitory concentration (IC50) was 24.4 µM.
To `c1ccc(-c2ccc(NCc3ccc4c(c3)OCO4)nn2)cc1` belongs 6.27 µM; to `CCCc1nc2c(sc3nc4c(cc32)COC(C)(C)C4)c(=O)n1CC(=O)Nc1ccccc1C`, 21.9 µM; to `CO[C@H]1CC[C@H](O)c2c1oc1c3c4c(c(O)c1c2=O)-c1c(cc2c(Cl)c(C)n(N)c(=O)c2c1O)C[C@@H]4OCO3`, 20.3 µM.
In the case of `CCOc1ccccc1C(=O)Oc1ccc2c(C)cc(=O)oc2c1`, the IC50 is 23.2 µM.
In the case of `COc1ccc(CNC(=O)c2[nH]nc3c2CCc2ccccc2-3)cc1`, the half-maximal inhibitory concentration (IC50) is 36.1 µM.
For `COc1ccc(Cn2c(=O)[nH]c3cc(C(=O)NCCCN4CCN(c5cccc(Cl)c5)CC4)ccc3c2=O)cc1`, the IC50 was 3.43 µM.
As to `CCOC(=O)c1nc(Nc2ccc(OC)c(Cl)c2)c2ccccc2n1`, the IC50 is 26.5 µM.
`Fc1ccc(CSc2nnc(-c3ccccn3)n2Cc2ccco2)cc1`: the IC50 was 21.9 µM.
The result for `O=C(NCc1nc(-c2ccc3c(c2)[nH]c(=O)n3C2CCCC2)no1)c1ccccc1` reads > 50 µM (inactive); that for `COC(=O)c1sccc1NC(=O)COc1ccsc1C(=O)OC`, 25.6 µM.
For the compound `Cc1ccc(NC(=O)c2ccc(N3CCOCC3)nn2)cc1F`, the IC50 is 45.6 µM.
With `O=C(c1nnn(Cc2ccc(Cl)cc2)c1-n1cccc1)N1CCCC1`, the 50% inhibitory concentration (IC50) is 5.97 µM.
On to `CCN1C(=O)c2cccnc2Sc2cc(NC(=O)c3ccc(Cl)s3)ccc21`, for which the IC50 is 4.61 µM.
On to `COc1ccccc1NC(=O)CNC(=O)c1nn(-c2ccc(OC)c(OC)c2)c(=O)c2ccccc12`, for which the IC50 is 24.8 µM.
Consider `O=C1CC(C(=O)Nc2ccc(F)cc2)n2nc(SCc3ccccc3)nc2N1` (stereo unspecified), for which the 50% inhibitory concentration (IC50) is 29.3 µM.
Turning to `CC(C)NS(=O)(=O)c1cccc2c(NC(=O)C(Cc3ccccc3)NC(=O)c3ccccc3)cccc12` (stereo unspecified), the IC50 was > 50 µM (inactive).
The result for `Cc1nn(-c2ccccc2)c2c1N=C1C(Cl)=CC(Cl)=CN1C21C(=O)Nc2ccccc21` (stereo unspecified) reads > 50 µM (inactive).
Consider `Cc1ccc2c(c1)[C@]1(C(=O)N2)[C@@H]2C(=O)N(c3cccc(C(F)(F)F)c3)C(=O)[C@@H]2C2CCCN21` (stereo partly specified), for which the IC50 was > 50 µM (inactive).
As for `CN(C)c1cc(-n2cnc(C(=O)NCc3ccccc3Cl)c2)ncn1`, the IC50 is 19.8 µM.
Regarding `COc1ccccc1NC(=O)CSC1=NC2(CCCCC2)Nc2ccccc21`, the IC50 is > 50 µM (inactive).
Turning to `COc1ccc(C2CC(=O)Nc3n[nH]c(-c4ccccc4)c32)cc1OC` (stereo unspecified), the half-maximal inhibitory concentration (IC50) is 33.7 µM.
On to `CCn1cnc2ccc(C(=O)NC3CC3)cc2c1=O`, for which the 50% inhibitory concentration (IC50) is 20.2 µM.
For the compound `CC1=C(C)C(c2c(-c3ccc(C)cc3)[nH]c3ccccc23)N(C(C)(C)C)C1=O` (stereo unspecified), the half-maximal inhibitory concentration (IC50) is 2.25 µM.
`CSc1cccc(C(=O)Nc2ccc(-c3nc4ccccc4[nH]3)cc2)c1`: the IC50 is 5.8 µM.
Take `COc1ccc(NC(=O)CSc2nnc(Cc3cccc4ccccc34)n2C)cc1`: the IC50 is 17.5 µM.
The result for `CC1(C(=O)NC2CCCC2)Cn2c(cc3ccccc32)C(=O)N1c1ccc(F)cc1` (stereo unspecified) reads 21.3 µM; that for `COc1ccccc1Nc1ncc(C(=O)NCCc2ccc(Cl)cc2)c2ccccc12`, 4.31 µM.
As for `CC1CCN(C(=O)c2cn(-c3cc(N4CCC(C)CC4)ncn3)cn2)CC1`, the IC50 is 15.1 µM.
Turning to `O=S(=O)(c1ccc(F)cc1)N1CCCC1c1ccnc(Nc2cnccn2)n1` (stereo unspecified), the IC50 is > 50 µM (inactive).
Regarding `CSc1ccccc1C(=O)Nc1sc2c(c1C(N)=O)CCC(C)C2` (stereo unspecified), the IC50 is 2.78 µM.
For the compound `CC1CCc2sc(NC(=O)c3ccccc3Oc3ccccc3)c(C(N)=O)c2C1` (stereo unspecified), the IC50 was 15.2 µM.
The result for `O=S(c1ccc2ccccc2c1)c1cnns1` (stereo unspecified) reads > 50 µM (inactive); that for `CC(OC(=O)CNC(=O)c1ccc(Br)cc1)C(=O)Nc1ccc2c(c1)OCCO2` (stereo unspecified), 25.8 µM.
On to `CN1CCC(N(C)S(=O)(=O)c2ccc(NC(=O)c3cccc(OCc4ccccc4)c3)cc2)CC1`, for which the IC50 was 17.2 µM.
On to `O=C(O)c1ccccc1C(=O)Nc1ccc(SC(C(=O)Nc2cccc(Cl)c2)c2ccccc2)cc1` (stereo unspecified), for which the IC50 was 22.4 µM.
Regarding `O=c1c(-c2nc(C3CC3)no2)cccn1Cc1c(F)cccc1Cl`, the IC50 is 1.82 µM.
The result for `COc1ccccc1CNC(=O)Nc1cccc2ccccc12` reads 42.4 µM; that for `O=C(COc1ccc2ccccc2c1)Nc1cccc2ccccc12`, 22.4 µM; that for `COc1ccc(NC(=O)c2nc3n(n2)-c2ccccc2S(=O)(=O)N3)cn1`, > 50 µM (inactive).
Regarding `CC1(C)OC2=C(C(=O)c3cc(O)cc(O)c3C2=O)c2cc(CO)c(O)cc21`, the 50% inhibitory concentration (IC50) is 18.5 µM.
To `O=C(NCCc1ccccc1F)c1cn2cc(Cl)ccc2n1` belongs 31.8 µM; to `COc1cc(O)c2c(=O)c(-c3ccc(O)cc3)coc2c1`, 36.1 µM.
The result for `O=C(CSc1ccc2nnc(-c3ccccc3)n2n1)N1CCCc2ccccc21` reads 9.31 µM.
The result for `Cc1nc(-c2ccc(-n3cc(C(=O)Nc4cccc(F)c4)c(C)n3)cc2)no1` reads 42.5 µM; that for `COc1ccc(OC)c(CCNC(=O)CCC2=NS(=O)(=O)c3ccc(C(F)(F)F)cc3N2)c1`, 23.6 µM.
For `O=c1c2ccccc2c(-c2nc(-c3ccncc3)no2)cn1-c1ccccc1`, the concentration for half-maximal inhibition (IC50) was 2.56 µM.
On to `COc1cccc(NC(=O)C2CCN(C(=O)c3cc(-c4cccnc4)n[nH]3)CC2)c1`, for which the 50% inhibitory concentration (IC50) was 20.3 µM.
On to `CC1=C(c2ccc(F)cc2)S(=O)(=O)NC1=NCC(=O)Nc1cccc(F)c1`, for which the IC50 was 48.7 µM.
Turning to `CCOc1ccc(-n2c(SCC(=O)N3CC(=O)Nc4ccccc43)nnc2-c2ccc(OC)cc2)cc1`, the IC50 was 25.2 µM.
Consider `O=C(NCc1ccncc1)C1CCN(c2cncnc2N2CCCCC2)CC1`, for which the concentration for half-maximal inhibition (IC50) is 1.82 µM.
In the case of `Cc1nc(Nc2ncc(C)s2)cc(C2CN(C(=O)Cc3ccccc3)CCO2)n1` (stereo unspecified), the IC50 was 43.8 µM.
With `CN1CCN(c2ncnc3c2oc2ccc(Cl)cc23)CC1`, the IC50 is > 50 µM (inactive).
For the compound `COc1cccc2c1NC(=O)C21CCN(C(=O)Nc2cccc3ccccc23)CC1`, the IC50 was > 50 µM (inactive).
On to `O=C(Nc1cccc(Cl)c1)N1CCN(c2cc(C(F)(F)F)ccn2)CC1`, for which the IC50 is 25.1 µM.
The result for `O=C1Cc2ccccc2C(=O)N1c1ccc2c(c1)OCO2` reads 24.3 µM; that for `O=C(O)CCCCCN1C(=O)CC(c2ccc(Cl)cc2)CC1=O`, 16.7 µM; that for `Cc1nc2cccnc2n1C1CCN(C(=O)c2cc3cc(Cl)ccc3[nH]2)C1` (stereo unspecified), 25.3 µM.
The result for `Cc1c(C)n(-c2ccccc2)c2ncn(CC(=O)NCCCc3ccccc3)c(=O)c12` reads 23.1 µM; that for `O=C(NC1CCN(c2nc(-c3cccnc3)nc3ccccc23)CC1)c1cccnc1`, 15.1 µM.
To `O=c1c(NCCCN2CCCC2)nc2ccncc2n1Cc1ccccc1` belongs > 50 µM (inactive).
Take `O=C(COc1cc([N+](=O)[O-])cc2cccnc12)NCCC1=CCCCC1`: the IC50 was 28.6 µM.
As for `CCc1ccc(NC(=O)Cc2nnc3cc(-c4nc(C)no4)ccn23)cc1`, the IC50 is 4.07 µM.
